Like-named read-outs stand apart in the source and are kept apart here.
Columns and labels:
DU-145 [1] = test system: DU-145
A-549 [2] = test system: A-549
MEL-28 [3] = test system: MEL-28
P-388 [4] = test system: P-388
DU-145 [5] = assay: Cytotoxic activity IC50, DU-145; details: Homo sapiens, DU-145, read-out: CYTOTOXIC ACTIVITIY IC50 (μM) DU-145, DU-145
A-549 [6] = assay: Cytotoxic activity IC50, A-549; details: Homo sapiens, A549, read-out: CYTOTOXIC ACTIVITIY IC50 (μM) A-549, A-549
P-388 [7] = assay: Cytotoxic activity IC50, P-388; details: Mus musculus, P388, read-out: CYTOTOXIC ACTIVITIY IC50 (μM) P-388
MEL-28 [8] = assay: Cytotoxic activity IC50, MEL-28; details: Homo sapiens, SK-MEL-28, read-out: CYTOTOXIC ACTIVITIY IC50 (μM) MEL-28, MEL-28

Compound | IC50 (HT-29) | IC50 (DU-145 [1]) | IC50 (A-549 [2]) | IC50 (MEL-28 [3]) | IC50 (P-388 [4]) | further results
COc1c(C)cc2c(c1O)[C@@H]1C3Cc4c(OC(C)=O)c(C)c5c(c4[C@H](CNC(=O)CCc4ccccc4)N3[C@@H](C#N)[C@H](C2)N1C)OCO5 (stereo partly shown) | 0.1 nM | 0.1 nM | 0.1 nM | 0.1 nM | 0.1 nM | 
COc1c(C)cc2c(c1O)[C@@H]1C3Cc4c(OC(C)=O)c(C)c5c(c4[C@H](CNC(=O)Cc4ccccc4)N3[C@@H](C#N)[C@H](C2)N1C)OCO5 (stereo partly shown) | 0.1 nM | 0.1 nM | 0.1 nM | 0.1 nM | 0.1 nM | 
CCC(=O)NC[C@H]1c2c(c(OC(C)=O)c(C)c3c2OCO3)CC2[C@H]3c4c(cc(C)c(OC)c4O)C[C@@H]([C@H](C#N)N21)N3C (stereo partly shown) | 0.1 nM | 0.1 nM | 0.1 nM | 0.1 nM | 0.1 nM | 
C/C=C/C(=O)NC[C@H]1c2c(c(OC(C)=O)c(C)c3c2OCO3)CC2[C@H]3c4c(cc(C)c(OC)c4O)C[C@@H]([C@H](C#N)N21)N3C (stereo partly shown) | 0.1 nM |  |  | 0.1 nM | 0.1 nM | IC50 (DU-145 [5]): 0.0008 µM; IC50 (A-549 [6]): 0.0008 µM
C/C=C/C(=O)NC[C@H]1c2c(c(OC(C)=O)c(C)c3c2OCO3)CC2[C@H]3c4c(cc(C)c(OC)c4O)C[C@@H]([C@H](O)N21)N3C (stereo partly shown) | 0.1 nM |  |  | 0.1 nM | 0.1 nM | IC50 (DU-145 [5]): 0.0008 µM; IC50 (A-549 [6]): 0.0008 µM
COc1c(C)cc2c(c1O)[C@@H]1C3Cc4c(OC(C)=O)c(C)c5c(c4[C@H](CNC(=O)[C@H](C)NC(=O)Cc4ccccc4)N3[C@@H](C#N)[C@H](C2)N1C)OCO5 (stereo partly shown) | 0.1 nM | 0.1 nM | 0.1 nM | 0.1 nM | 0.1 nM | 
COc1c(C)cc2c(c1O)[C@@H]1C3Cc4c(OC(C)=O)c(C)c5c(c4[C@H](COC(=O)CCc4ccccc4)N3[C@@H](C#N)[C@H](C2)N1C)OCO5 (stereo partly shown) | 0.1 nM | 0.1 nM | 0.1 nM | 0.1 nM | 0.1 nM | 
C=CCOC(=O)Oc1c(C)c2c(c3c1CC1[C@H]4c5c(cc(C)c(OC)c5O)C[C@@H]([C@H](C#N)N1[C@H]3CNC(=O)/C=C/c1ccccc1)N4C)OCO2 (stereo partly shown) | 0.1 nM | 0.1 nM | 0.1 nM | 0.1 nM | 0.1 nM | 
C=CCOC(=O)Oc1c(C)c2c(c3c1CC1[C@H]4c5c(cc(C)c(OC)c5O)C[C@@H]([C@H](O)N1[C@H]3CNC(=O)/C=C/c1ccccc1)N4C)OCO2 (stereo partly shown) | 0.1 nM | 0.1 nM | 0.1 nM | 0.1 nM | 0.1 nM | 
C=CCOC(=O)Oc1c(C)c2c(c3c1CC1[C@H]4c5c(cc(C)c(OC)c5O)C[C@@H]([C@H](C#N)N1[C@H]3CNC(=O)CCc1ccccc1)N4C)OCO2 (stereo partly shown) | 0.1 nM | 0.1 nM | 0.1 nM | 0.1 nM | 0.1 nM | 
C=CCOC(=O)Oc1c(C)c2c(c3c1CC1[C@H]4c5c(cc(C)c(OC)c5O)C[C@@H]([C@H](O)N1[C@H]3CNC(=O)CCc1ccccc1)N4C)OCO2 (stereo partly shown) | 0.1 nM | 0.1 nM | 0.1 nM | 0.1 nM | 0.1 nM | 
CCCC(=O)NC[C@H]1c2c(c(OC(C)=O)c(C)c3c2OCO3)CC2[C@H]3c4c(cc(C)c(OC)c4O)C[C@@H]([C@H](O)N21)N3C (stereo partly shown) [drawing 114] | 0.1 nM | 0.1 nM |  |  |  | IC50 (P-388 [7]): 0.0008 µM; IC50 (MEL-28 [8]): 0.0008 µM; IC50 (A-549 [6]): 0.0008 µM
CCCCCC(=O)NC[C@H]1c2c(c(OC(C)=O)c(C)c3c2OCO3)CC2[C@H]3c4c(cc(C)c(OC)c4O)C[C@@H]([C@H](C#N)N21)N3C (stereo partly shown) [drawing 126] |  |  |  |  | 0.1 nM | 
CCCC(=O)OC[C@H]1c2c(c(OC(C)=O)c(C)c3c2OCO3)CC2[C@H]3c4c(cc(C)c(OC)c4OCOC)C[C@@H]([C@H](C#N)N21)N3C (stereo partly shown) [drawing 148] |  |  |  |  |  | IC50 (HT-29; human): 100 nM; IC50 (P-388 [7]): 0.1 µM; IC50 (DU-145 [1]; human): 100 nM; IC50 (A-549 [2]; human): 100 nM; IC50 (MEL-28 [3]; human): 100 nM
COc1c(C)cc2c(c1O)[C@@H]1C3Cc4c(OC(C)=O)c(C)c5c(c4[C@H](COC(=O)/C=C/c4ccccc4)N3[C@@H](O)[C@H](C2)N1C)OCO5 (stereo partly shown) [drawing 159] |  |  |  |  | 0.1 nM | 

From US8012975B2, “Antitumoral analogs of ET-743” (Pharma Mar, S.A., priority 2000, dated 2011)
